From the supplement of paper PMC10307832

What was measured:
Assay in all cases: relative viability (nuclei count vs DMSO), 5 days (fraction); higher = more cells survive
[1] = test system: NCI-H2085
Summary of the method: (§1)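 Dosing by pin tool came one day after lung cancer cell lines were seeded in 1536-well plates, using either one drug or a fixed anchor-drug dose plus five library-drug doses (not always all listed) in √10 steps. After 5 days, nuclei were counted on 4× images. Relative viability is treated-well nuclei count divided by vehicle-well nuclei count, and values are medians of duplicate plates.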

[2] = test system: HCC-44
Summary of the method: as §1

[3] = test system: EKVX
Summary of the method: as §1

[4] = test system: NCI-H1993
Summary of the method: as §1

[5] = test system: NCI-H2126
Summary of the method: as §1

[6] = test system: NCI-H1623
Summary of the method: as §1

[7] = test system: ABC-1
Summary of the method: as §1

[8] = test system: RERF-LC-KJ
Summary of the method: as §1

[9] = test system: A549
Summary of the method: as §1

SMILES: COc1cc2nccc(Oc3ccc(NC(=O)Nc4cc(C)on4)c(Cl)c3)c2cc1OC [Tivozanib] + CCNC(=O)c1noc(-c2cc(C(C)C)c(O)cc2O)c1-c1ccc(CN2CCOCC2)cc1 [Luminespib] (partner 0.01 µM)
- relative viability ([1]; first compound 0.005 µM): 0.431
- relative viability ([1]; first compound 0.01581 µM): 0.4
- relative viability ([1]; first compound 0.05 µM): 0.469
- relative viability ([1]; first compound 0.1581 µM): 0.431
- relative viability ([1]; first compound 0.5 µM): 0.522
- relative viability ([2]; first compound 0.005 µM): 1.01
- relative viability ([2]; first compound 0.01581 µM): 1.06
- relative viability ([2]; first compound 0.05 µM): 0.927
- relative viability ([2]; first compound 0.1581 µM): 1.19
- relative viability ([2]; first compound 0.5 µM): 1.08
- relative viability ([3]; first compound 0.005 µM): 0.856
- relative viability ([3]; first compound 0.01581 µM): 0.834
- relative viability ([3]; first compound 0.05 µM): 0.879
- relative viability ([3]; first compound 0.1581 µM): 0.908
- relative viability ([3]; first compound 0.5 µM): 0.847
- relative viability ([4]; first compound 0.005 µM): 0.783
- relative viability ([4]; first compound 0.01581 µM): 0.741
- relative viability ([4]; first compound 0.05 µM): 0.955
- relative viability ([4]; first compound 0.1581 µM): 0.753
- relative viability ([4]; first compound 0.5 µM): 0.825
- relative viability ([5]; first compound 0.005 µM): 0.823
- relative viability ([5]; first compound 0.01581 µM): 0.964
- relative viability ([5]; first compound 0.05 µM): 0.875
- relative viability ([5]; first compound 0.1581 µM): 0.697
- relative viability ([5]; first compound 0.5 µM): 0.855
- relative viability ([6]; first compound 0.005 µM): 0.466
- relative viability ([6]; first compound 0.01581 µM): 0.55
- relative viability ([6]; first compound 0.05 µM): 0.602
- relative viability ([6]; first compound 0.5 µM): 0.504
- relative viability ([7]; first compound 0.005 µM): 0.692
- relative viability ([7]; first compound 0.05 µM): 0.429
- relative viability ([7]; first compound 0.1581 µM): 0.389
- relative viability ([7]; first compound 0.5 µM): 0.215
- relative viability ([8]; first compound 0.005 µM): 1.16
- relative viability ([8]; first compound 0.01581 µM): 1.29
- relative viability ([8]; first compound 0.05 µM): 1.25
- relative viability ([8]; first compound 0.1581 µM): 1.25
- relative viability ([8]; first compound 0.5 µM): 1.14

SMILES: COc1cc2nccc(Oc3ccc(NC(=O)Nc4cc(C)on4)c(Cl)c3)c2cc1OC [Tivozanib] + Cc1nc(Nc2ncc(C(=O)Nc3c(C)cccc3Cl)s2)cc(N2CCN(CCO)CC2)n1 [Dasatinib] (partner 0.075 µM)
- relative viability ([1]; first compound 0.005 µM): 0.226
- relative viability ([1]; first compound 0.01581 µM): 0.207
- relative viability ([1]; first compound 0.05 µM): 0.233
- relative viability ([1]; first compound 0.1581 µM): 0.315
- relative viability ([1]; first compound 0.5 µM): 0.224
- relative viability ([3]; first compound 0.005 µM): 0.571
- relative viability ([3]; first compound 0.01581 µM): 0.605
- relative viability ([3]; first compound 0.05 µM): 0.483
- relative viability ([3]; first compound 0.5 µM): 0.474
- relative viability ([4]; first compound 0.005 µM): 0.609
- relative viability ([4]; first compound 0.01581 µM): 0.605
- relative viability ([4]; first compound 0.05 µM): 0.692
- relative viability ([4]; first compound 0.1581 µM): 0.496
- relative viability ([4]; first compound 0.5 µM): 0.504
- relative viability ([5]; first compound 0.005 µM): 0.499
- relative viability ([5]; first compound 0.01581 µM): 0.567
- relative viability ([5]; first compound 0.05 µM): 0.636
- relative viability ([5]; first compound 0.1581 µM): 0.412
- relative viability ([5]; first compound 0.5 µM): 0.494
- relative viability ([6]; first compound 0.005 µM): 0.509
- relative viability ([6]; first compound 0.01581 µM): 0.56
- relative viability ([6]; first compound 0.05 µM): 0.578
- relative viability ([6]; first compound 0.5 µM): 0.527
- relative viability ([7]; first compound 0.005 µM): 0.649
- relative viability ([7]; first compound 0.01581 µM): 0.583
- relative viability ([7]; first compound 0.05 µM): 0.729
- relative viability ([7]; first compound 0.1581 µM): 0.489
- relative viability ([7]; first compound 0.5 µM): 0.323
- relative viability ([8]; first compound 0.005 µM): 0.799
- relative viability ([8]; first compound 0.01581 µM): 0.887
- relative viability ([8]; first compound 0.05 µM): 0.788
- relative viability ([8]; first compound 0.1581 µM): 0.856
- relative viability ([8]; first compound 0.5 µM): 0.583

SMILES: COc1cc2nccc(Oc3ccc(NC(=O)Nc4cc(C)on4)c(Cl)c3)c2cc1OC [Tivozanib] + N=C(N)NC(=N)NCCc1ccccc1 [Phenformin] (partner 250 µM)
- relative viability ([1]; first compound 0.005 µM): 0.652
- relative viability ([1]; first compound 0.01581 µM): 0.723
- relative viability ([1]; first compound 0.05 µM): 0.711
- relative viability ([1]; first compound 0.1581 µM): 0.62
- relative viability ([1]; first compound 0.5 µM): 0.673
- relative viability ([9]; first compound 0.005 µM): 0.171
- relative viability ([9]; first compound 0.01581 µM): 0.163
- relative viability ([9]; first compound 0.05 µM): 0.19
- relative viability ([9]; first compound 0.1581 µM): 0.124
- relative viability ([9]; first compound 0.5 µM): 0.209
- relative viability ([2]; first compound 0.005 µM): 0.152
- relative viability ([2]; first compound 0.01581 µM): 0.234
- relative viability ([2]; first compound 0.05 µM): 0.19
- relative viability ([2]; first compound 0.1581 µM): 0.18
- relative viability ([2]; first compound 0.5 µM): 0.131
- relative viability ([3]; first compound 0.005 µM): 0.214
- relative viability ([3]; first compound 0.01581 µM): 0.228
- relative viability ([3]; first compound 0.05 µM): 0.232
- relative viability ([3]; first compound 0.1581 µM): 0.243
- relative viability ([3]; first compound 0.5 µM): 0.236
- relative viability ([4]; first compound 0.005 µM): 0.503
- relative viability ([4]; first compound 0.01581 µM): 0.507
- relative viability ([4]; first compound 0.05 µM): 0.51
- relative viability ([4]; first compound 0.1581 µM): 0.558
- relative viability ([4]; first compound 0.5 µM): 0.52
- relative viability ([5]; first compound 0.005 µM): 0.486
- relative viability ([5]; first compound 0.01581 µM): 0.546
- relative viability ([5]; first compound 0.05 µM): 0.553
- relative viability ([5]; first compound 0.1581 µM): 0.516
- relative viability ([5]; first compound 0.5 µM): 0.528
- relative viability ([6]; first compound 0.005 µM): 0.582
- relative viability ([6]; first compound 0.01581 µM): 0.622
- relative viability ([6]; first compound 0.05 µM): 0.588
- relative viability ([6]; first compound 0.5 µM): 0.607
- relative viability ([7]; first compound 0.005 µM): 0.236
- relative viability ([7]; first compound 0.01581 µM): 0.246
- relative viability ([7]; first compound 0.05 µM): 0.268
- relative viability ([7]; first compound 0.1581 µM): 0.201
- relative viability ([7]; first compound 0.5 µM): 0.24
- relative viability ([8]; first compound 0.005 µM): 0.402
- relative viability ([8]; first compound 0.01581 µM): 0.375
- relative viability ([8]; first compound 0.05 µM): 0.468
- relative viability ([8]; first compound 0.1581 µM): 0.411
- relative viability ([8]; first compound 0.5 µM): 0.382
